Reference: ChEMBL document CHEMBL1201862, “PubChem BioAssay data set” (2004)
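In this assay, cells in 96-well plates receive the compound at five concentrations for 48 hours. Endpoints are linearly interpolated between the surrounding concentrations. Here, GI50 denotes the concentration required for 50% inhibition of growth.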 Active and inactive are the calls of the source. No stated cut-off is given here; in the data, active = GI50 up to about 1.1 µM and inactive = higher.

Columns and labels:
Assay in all cases: growth of human tumour cells (NCI), 48 h
[1] = tested on: UO-31
[2] = tested on: NCI-H226
[3] = tested on: 786-0
[4] = tested on: SK-MEL-28
[5] = tested on: RPMI-8226
[6] = tested on: OVCAR-8
[7] = tested on: SF-295
[8] = tested on: K562
[9] = tested on: MOLT-4
[10] = tested on: SNB-19
[11] = tested on: UACC-257
[12] = tested on: ACHN
[13] = tested on: KM12
[14] = tested on: A498

Measured: GI50

Cc1cc2c(=O)cc(-c3ccc(F)cc3)oc2c(C(=O)O)c1C
inactive: [1] > 100 µM | [2] > 100 µM | [3] > 100 µM | [4] > 100 µM | [5] > 100 µM | [6] > 100 µM | [7] > 100 µM | [8] > 100 µM | [9] > 100 µM | [10] > 100 µM | [11] > 100 µM | [12] > 100 µM | [13] > 100 µM

COc1ccc2c3c1C(=O)CCC3CO2 (centres undefined)
inactive: [1] > 100 µM | [3] > 100 µM | [4] > 100 µM | [5] > 100 µM | [6] > 100 µM | [14] > 100 µM | [7] > 100 µM | [8] > 100 µM | [9] > 100 µM | [10] > 100 µM | [11] > 100 µM | [12] > 100 µM | [13] > 100 µM

CCOC(=O)C1S/C(=N\c2ccc(Cl)c(Cl)c2)N=C1C (centres undefined)
inactive: [1] 92.9 µM | [2] 23.4 µM | [3] 17.5 µM | [4] 73.8 µM | [5] 17.8 µM | [6] 35.4 µM | [14] 26 µM | [7] 29.7 µM | [8] 13.4 µM | [9] 18.8 µM | [10] 45.6 µM | [11] 87.1 µM | [12] 29.5 µM | [13] 27.9 µM

Cc1cn(C2CC(n3cncn3)C(C(C)O)O2)c(=O)[nH]c1=O (centres undefined)
inactive: [1] > 100 µM | [2] > 100 µM | [3] > 100 µM | [4] > 100 µM | [5] > 100 µM | [6] > 100 µM | [7] > 100 µM | [8] > 100 µM | [9] > 100 µM | [10] > 100 µM | [11] > 100 µM | [12] > 100 µM | [13] > 100 µM

O=C(O)CCNS(=O)(=O)c1ccc([N+](=O)[O-])cc1
inactive: [1] 66.8 µM | [2] > 100 µM | [3] > 100 µM | [4] > 100 µM | [5] > 100 µM | [6] > 100 µM | [14] > 100 µM | [7] > 100 µM | [8] > 100 µM | [9] > 100 µM | [10] > 100 µM | [11] > 100 µM | [12] > 100 µM | [13] > 100 µM

CCOc1cccc2ccc[n+](CC)c12
inactive: [1] > 100 µM | [2] > 100 µM | [3] > 100 µM | [4] > 100 µM | [5] > 100 µM | [6] 25.2 µM | [7] 45.7 µM | [8] 25.1 µM | [9] > 100 µM | [10] > 100 µM | [11] 57.9 µM | [12] > 100 µM | [13] 49.7 µM

CCO/C=C\C12CCCC1NC(c1ccccc1)(c1ccccc1)O2 (centres undefined)
inactive: [1] 28.8 µM | [2] 43.8 µM | [3] 32.7 µM | [4] 40.5 µM | [6] 39.2 µM | [14] 53.5 µM | [7] 32.7 µM | [8] 20.1 µM | [9] 19.2 µM | [10] 45.7 µM | [11] 27.5 µM | [12] 30.3 µM | [13] 35.7 µM

C[C@@]12CCCC(=O)N1[C@@H](CO)C(c1ccccc1)O2 (some centres undefined)
inactive: [3] > 100 µM | [4] > 100 µM | [5] > 100 µM | [6] > 100 µM | [14] > 100 µM | [7] > 100 µM | [8] > 100 µM | [10] > 100 µM | [11] > 100 µM | [12] > 100 µM | [13] > 100 µM
